Tests used:
Set-up in all cases: species or system mice
Conditions in all cases: mouse, in vivo
[1] = system: Newcastle Disease Virus (NDV) strain Lasota
[2] = system: influenza virus, strain MRC-11
[3] = system: influenza virus strain A/Texas

Substance: Cholera toxin subunit B [CTB]
- anti-NDV Ig-producing cells/10^6 cells 3 weeks following immunization, mean; IgA in the spleen [1]: 84 cells/10^6 cells
- anti-NDV Ig-producing cells/10^6 cells 3 weeks following immunization, mean; IgG in the lungs [1]: 10 cells/10^6 cells
- anti-NDV Ig-producing cells/10^6 cells 3 weeks following immunization, mean; IgG in the spleen [1]: 8 cells/10^6 cells
- anti-NDV Ig-producing cells/10^6 cells 6 weeks following immunization, mean; IgA in the lungs [1]: 23 cells/10^6 cells
- anti-NDV Ig-producing cells/10^6 cells 3 weeks following immunization, mean; IgA in the lungs [2]: 82 cells/10^6 cells
- specific Ig-producing cells/10^6 cells 3 weeks following first immunization, mean; IgA in the lungs [3]: 961 cells/10^6 cells

From patent US6610310B2, “Polyanionic polymers as adjuvants for mucosal immunization” (priority 1996, dated 2003)
